Key:
MCF-10A neoT cells [1] = assay: Extracellular DQ-collagen IV degradation, fluorescence intensity in medium; format: cell-based; conditions: Homo sapiens, MCF-10A-neoT, 3 h, DQ-collagen IV 5 µg/ml
Experimental: Two experiments were set to differentiate between inhibition of intracellular and extracellular DQ-collagen IV degradation. Inhibition of extracellular DQ-collagen IV degradation was observed by monitoring the fluorescence intensity of degraded DQ-collagen IV in the medium in which MCF-10A neoT cells were grown. 5 × 10^4 MCF-10A neoT cells were plated into wells of a 96-well black plate and were allowed to attach over night. Cells were then incubated with 100 µl PBS containing 5-nitro-8-hydroxyquinoline, CA-074 or CA-074Me (10 µM) and DQ-collagen IV (5 µg/ml) for 3 h. Afterwards, the 80 µl of PBS was transferred into the empty wells and the fluorescence intensity was measured at 495 nm ± 5 nm excitation and 515 nm ± 5 nm emission wavelengths on Tecan Safire^2™. The experiment was performed in 8 parallels and DMSO was used as a control.

Cathepsin B [2] = molecular target: T1, Cathepsin B (Homo sapiens, UniProt P07858); assay: Reversibility by mass spectrometry (ESI-MS of cathepsin B after incubation and dialysis); format: binding; conditions: equimolar inhibitor, 1 h room temperature, dialysis
Experimental: Third, reversibility of 5-nitro-8-hydroxyquinoline was also checked with mass spectrometry. Cathepsin B (4.4 µM) was activated in the activation buffer for 5 min at 37 °C. Afterwards, an equimolar amount of the inhibitor was added to the enzyme and incubated for 1 h at room temperature. The mixture was dialyzed against water five times using Microcon Centrifugal Filter Devices YM-10 to avoid salt interferences and to remove unbound molecules of the test compound. Samples were then prepared by adding an equal volume of acetonitrile containing 0.1 % formic acid and analyzed with ESI-MS on an AutoSpec Q instrument. As a positive control CA-074 was used.

Cathepsin B [3] = molecular target: T1, Cathepsin B; assay: Cathepsin B endopeptidase activity, enzyme kinetics with substrate Z-RR-AMC; format: biochemical
Experimental: The effect of 8-hydroxyquinolines on cathepsin B enzymatic activity was assessed using enzyme kinetics. First, the effect of 8-hydroxyquinolines on cathepsin B endopeptidase activity was assessed using the cathepsin B specific endopeptidase substrate Z-RR-AMC. 5 µl of the Z-RR-AMC (final concentration 60, 180 and 360 µM) and 5 µl of respective compound at increasing concentrations were added to wells of a black microplate. 90 µl of human recombinant cathepsin B was then added to a final concentration of 0.4 nM in activation buffer (100 mM phosphate buffer, pH 6.0 with 0.1 % PEG, 5 mM DTT and 1.5 mM EDTA). All assay mixtures contained a constant amount of DMSO, i.e. 5 %. Formation of fluorescent degradation product was continuously monitored at 380 nm ± 20 nm excitation and […] ± 10 nm emission wavelengths on Tecan Safire^2™ at 37°C. Mechanism and the constant of inhibition (Ki) of cathepsin B endopeptidase activity were determined using the graphical method according to Cornish-Bowden (Cornish-Bowden A: A Simple Graphical Method for Determining the Inhibition Constants of Mixed, Uncompetitive and Non-Competitive Inhibitors. Biochem J 1974, 137:143-4.) and using the SigmaPlot® 11, Enzyme Kinetics Module™ 1.3. Table I. Results of testing the compounds according to Formula (I) on cathepsin B endopeptidase activity.

Cathepsin B [4] = molecular target: T1, Cathepsin B; assay: Reversibility of cathepsin B inhibition by enzyme kinetics (100-fold dilution of enzyme-inhibitor complex); format: biochemical; conditions: for enzyme inhibition after dilution of the complex: inhibitor at 10-fold IC50, 100-fold dilution
Experimental: Reversibility of cathepsin B inhibition with 5-nitro-8-hydroxyquinoline was determined with three independent experiments. First, we used enzyme kinetics. Cathepsin B at 100-fold its final assay concentration (10 nM) and 5-nitro-8-hydroxyquinoline at 10-fold its IC50 were incubated for 5, 15 and 30 min at room temperature at 2 µl. The enzyme-inhibitor complex was then diluted 100-fold with 5 µM Z-RR-AMC to a final volume of 200 µl, initiating the reaction. Before the dilution of the enzyme-inhibitor complex the enzyme's activity is inhibited by 90 %. In the case of a reversible inhibitor after dilution this percentage is reduced to 9 %. In the case of an irreversible inhibitor the percentage stays unchanged (90 %).

MCF-10A neoT cells [5] = assay: Intracellular DQ-collagen IV degradation by flow cytometry; format: cell-based; conditions: 50 µM, shift in fluorescence intensity
Experimental: Inhibition of intracellular DQ-collagen IV degradation was observed by flow cytometry by a shift in fluorescence intensity. 5 × 10^4 MCF-10A neoT cells in complete medium were plated into the wells of a 24-well plate and allowed to attach over night. Afterwards, the medium was replaced with 500 µl of serum free medium with 5-nitro-8-hydroxyquinoline, CA-074 or CA-074Me (50 µM). After 2 h incubation the medium was again replaced with serum free medium containing inhibitors (50 µM) and DQ-collagen IV (5 µg/ml). DMSO was used as a control. For the experiment only viable cells were selected using propidium iodide. The measurements were performed on a FACS Calibur instrument (Beckton Dickinson, Inc.).

Cathepsin B [6] = molecular target: T1, Cathepsin B; assay: Reversibility with active site probe DCG-04 (labelling, SDS-PAGE, blot); format: binding; conditions: 0.1, 1, 10 and 50 µM inhibitor, 1 h, then 2 µM DCG-04
Text: Second, the reversibility of 5-nitro-8-hydroxyquinoline was also studied with the active site probe DCG-04. DCG-04 is a derivative of an irreversible epoxysuccinic inhibitor of cysteine proteases E-64 with an additional biotin moiety which enables detection of covalently modified proteases with labelling intensity correlating with enzymatic activity (Greenbaum D, Medzihradszky KF, Burlingame A, Bogyo M: Epoxide electrophiles as activity-dependent cysteine protease profiling and discovery tools. Chem Biol 2000, 7: 569-81.). 1 µg of recombinant cathepsin B in 50 mM Tris, pH 5.5 containing 1 mM DTT, 5 mM MgCl2 and 250 mM sucrose was incubated with 0.1, 1, 10 in 50 µM 5-nitro-8-hydroxyquinoline (diluted from 10 mM DMSO stocks) for 1 h at room temperature. Samples were then labelled with 2 µM DCG-04 for an additional h at room temperature. After boiling in reducing sample buffer for 10 min samples were analyzed by 12.5 % SDS-PAGE and transferred to a nitrocellulose membrane. The latter was then blocked with 0.5 % Tween 20 in PBS overnight at 4 °C and incubated with 1 µg/ml streptavidin-horseradish peroxidase in 0.2 % Tween 20 in PBS for 1 h at room temperature. The membrane was washed five times with 0.2 % Tween 20 in PBS and the spots on the membrane were visualized with 0.5 mg/ml 3,3'-diaminobenzidine and 0.0005 % (v/v) H2O2 in 50 mM Tris, pH 7.5. […]

In the case of `O=[N+]([O-])c1ccc(O)c2ncccc12` [Compound 1, 5-nitro-8-hydroxyquinoline], the inhibition at 10 µM (MCF-10A neoT cells [1]) is reported as 35.3%, the “Molecular weight of cathepsin B after incubation with inhibitor” value (Cathepsin B [2]) is reported as “did not alter” and the Mechanism of inhibition (Cathepsin B [3]; cathepsin B endopeptidase activity) is reported as “uncompetitive inhibition”. For the same compound, the Ki (Cathepsin B [3]; endopeptidase activity, substrate Z-RR-AMC, pH 6.0, 37°C) was 37.7 ± 3.5 µM, the “enzyme inhibition after dilution of the complex” value (“enzyme inhibition after dilution” for short) (Cathepsin B [4]; 5 min incubation) was 21.7 ± 2.2% and the “enzyme inhibition after dilution” value (Cathepsin B [4]; 15 min incubation) was 25.2 ± 3.5%. For the same compound, the “enzyme inhibition after dilution” value (Cathepsin B [4]; 30 min incubation) was 27.6 ± 3.2%, the “calculated value of inhibition” value (Cathepsin B [4]; expected inhibition after dilution considering the Hill coefficient) was 15% and the “inhibition of intracellular DQ-collagen IV degradation” value (MCF-10A neoT cells [5]) was “significantly inhibits”. The “intensity of spots (DCG-04 labelling) versus DMSO control” value (Cathepsin B [6]) was “did not differ significantly from the DMSO control”.
